Bridge positions count the residues as written; N and C are the ends. Square brackets hold non-standard residues; d marks the D form. Peptide text beside a SMILES is read from it. R8 = C=CCCCCCC[C@@](C)(N)C(=O)O; S8 = C=CCCCCCC[C@](C)(N)C(=O)O; R5 = C=CCCC[C@@](C)(N)C(=O)O; S5 = C=CCCC[C@](C)(N)C(=O)O

As a reminder, the EC50 is the concentration at which the effect is half-maximal. Low readings indicate greater potency, high ones weaker potency. As usually defined, the half-life is the time in which the quantity being followed falls by half. As a reminder, the inhibition is the share of the control response that was lost under treatment. Higher therefore signals strong suppression.

Data set [1] concerns Hepatitis C virus. Nature of the data set: Inhibition of HCV 1b con1 envelope glycoprotein E2 interaction to cell surface protein CD81 in human Huh 7.5.1 cells after 2 days by firefly luciferase based luminescene assay. The following applies: Con1, Huh-7.5.1, 48 h. Format: organism-based, Hepacivirus hominis.
Data set [2] is described as follows: Inhibition of HCV JFH-1 envelope glycoprotein E2 interaction to cell surface protein CD81 in human Huh 7.5.1 cells after 2 days by firefly luciferase based luminescene assay. Set-up: species or system Hepatitis C virus JFH-1.
The nature of data set [3]: Half life of the compound in presence of chymotrypsin at 20 uM by HPLC analysis. Format: physicochemical.
In data set [4] the test system is Hepatitis C virus. Kind of data set: Antiviral activity against HCV JFH-1 infected in human Huh 7.5.1 cells after 2 days by firefly luciferase reporter gene assay. Format: functional, organism-based, Hepacivirus hominis. The settings on record: JFH-1, Huh-7.5.1, 48 h. Background: A reporter such as luciferase makes a cellular process visible.
The subject of a further data set is Hepacivirus hominis. Nature of the data set: Inhibition of HCV envelope glycoprotein E2 interaction to human cell surface protein CD81.
Data set [5] in a line: Cytotoxicity against human Huh7.5.1 cells at 1000 ug/ml after 48 hrs by WST-1 assay. The format is cell-based.
Data set [6] relates to Hepatitis C virus. Nature of the data set: Antiviral activity against HCV at 50 uM. Format: functional, Hepacivirus hominis.

Consider `CC[C@H](C)[C@@H]1NC(=O)[C@H](CC(N)=O)NC(=O)[C@@](C)(NC(=O)CNC(=O)[C@H](CO)NC(=O)[C@@H]2CCCN2C(C)=O)CCC/C=C\CCC[C@@](C)(C(=O)N[C@@H](CC(N)=O)C(=O)N[C@@H](CC(C)C)C(=O)N[C@@H](Cc2ccccc2)C(=O)N[C@@H](CCCCN)C(=O)N[C@@H](CCC(=O)O)C(=O)N[C@@H](CC(=O)O)C(N)=O)NC(=O)[C@H]([C@@H](C)CC)NC1=O` (Ac-PSG[S5]NII[S5]NLFKED-NH2; staple (Z) 4-8), for which the EC50 amounted to 164 µM in the data set on Hepatitis C virus [1], 21 µM in data set [2] and 40 µM in the data set on Hepatitis C virus [4]. Further, the half-life at 20 µM in data set [3] is over 3.33 h.
Taken in the same sequence, the figures for `CC[C@H](C)[C@H](NC(=O)[C@H](CC(N)=O)NC(=O)[C@H](CO)NC(=O)CNC(=O)[C@H](CO)NC(=O)[C@@H]1CCCN1C(C)=O)C(=O)N[C@H](C(=O)N[C@@]1(C)CCC/C=C\CCC[C@@](C)(C(=O)N[C@@H](CCC(=O)O)C(=O)N[C@@H](CC(=O)O)C(N)=O)NC(=O)[C@H](Cc2ccccc2)NC(=O)[C@H](CC(C)C)NC(=O)[C@H](CC(N)=O)NC1=O)[C@@H](C)CC` (Ac-PSGSNII[S5]NLF[S5]ED-NH2; staple (Z) 8-12) were 280 µM, 313 µM, 181 µM and over 3.33 h.
In the data set on Hepacivirus hominis, `CCN(CCN(CC)C(=O)c1nc[nH]c1C(=O)N[C@H](C(=O)OCc1ccccc1)C(C)C)C(=O)c1nc[nH]c1C(=O)N[C@H](C(=O)OCc1ccccc1)C(C)C` showed an INH of 53 µM.
Turning to `CC[C@H](C)[C@@H]1NC(=O)[C@H](CC(N)=O)NC(=O)[C@H](CO)NC(=O)[C@](C)(NC(=O)[C@H](CO)NC(=O)[C@@H]2CCCN2C(C)=O)CCCCCC/C=C\CCC[C@](C)(C(=O)N[C@@H](Cc2ccccc2)C(=O)N[C@@H](CCCCN)C(=O)N[C@@H](CCC(=O)O)C(=O)N[C@@H](CC(=O)O)C(N)=O)NC(=O)[C@H](CC(N)=O)NC(=O)[C@H](CO)NC(=O)[C@H]([C@@H](C)CC)NC1=O` (Ac-PS[R8]SNIISN[R5]FKED-NH2; staple (Z) 3-10), the EC50 in the data set with Hepatitis C virus [1] was determined as 35 µM; in data set [2], 17 µM; in the data set on Hepatitis C virus [4], 39 µM. In addition, in data set [5], the Activity result is “Non-toxic”. For the same molecule, the half-life at 20 µM in data set [3] is over 3.33 h.
Consider `O=C(OCc1ccccc1)c1ccccc1O` [BENZYL SALICYLATE], for which, in the data set on Hepatitis C virus [6], the inhibition at 50 µM amounted to 25%.
`CCN(CCN(CC)C(=O)c1nc[nH]c1C(=O)N[C@@H](CC(C)C)C(=O)OCc1ccccc1)C(=O)c1nc[nH]c1C(=O)N[C@@H](CC(C)C)C(=O)OCc1ccccc1` displayed an INH in the data set on Hepacivirus hominis of 38 µM.
As to `CC[C@H](C)[C@@H]1NC(=O)[C@H]([C@@H](C)CC)NC(=O)[C@@](C)(NC(=O)[C@H](CO)NC(=O)CNC(=O)[C@H](CO)NC(=O)[C@@H]2CCCN2C(C)=O)CCCCCC/C=C/CCC[C@@](C)(C(=O)N[C@@H](CCC(=O)O)C(=O)N[C@@H](CC(=O)O)C(N)=O)NC(=O)[C@H](Cc2ccccc2)NC(=O)[C@H](CC(C)C)NC(=O)[C@H](CC(N)=O)NC(=O)[C@H](CO)NC1=O` (Ac-PSGS[S8]IISNLF[S5]ED-NH2; staple (E) 5-12), the EC50 stood at 310 µM in the data set on Hepatitis C virus [1], 78 µM in data set [2] and 357 µM with Hepatitis C virus [4]. Further, the half-life at 20 µM in data set [3] was over 3.33 h.
Turning to Ac-PSGSNIISNLFKED-NH2, the EC50 in the data set on Hepatitis C virus [1] was 320 µM; in data set [2], 320 µM; in the data set with Hepatitis C virus [4], 244 µM. Besides, the Activity entry in data set [5] is listed as “Non-toxic”. Further, the half-life at 20 µM in data set [3] worked out at 0.167 h.
Turning to `CC[C@H](C)[C@@H]1NC(=O)[C@@](C)(NC(=O)[C@H](CC(N)=O)NC(=O)[C@H](CO)NC(=O)CNC(=O)[C@H](CO)NC(=O)[C@@H]2CCCN2C(C)=O)CCC/C=C\CCC[C@@](C)(C(=O)N[C@@H](Cc2ccccc2)C(=O)N[C@@H](CCCCN)C(=O)N[C@@H](CCC(=O)O)C(=O)N[C@@H](CC(=O)O)C(N)=O)NC(=O)[C@H](CC(N)=O)NC(=O)[C@H](CO)NC1=O` (Ac-PSGSN[S5]ISN[S5]FKED-NH2; staple (Z) 6-10), the EC50 with Hepatitis C virus [1] came to 316 µM; in data set [2] it was 200 µM; in the data set with Hepatitis C virus [4], 240 µM. Further, the half-life at 20 µM in data set [3] is over 3.33 h.
